Results: patent publication US7517874B2 (priority 2007, dated 2009)
Where two headings read alike, the source gives them in different places.

Tests used:
rat CB2 receptor (rCB2) = target: T1, rat CB2 receptor (rCB2) (Rattus norvegicus, UniProt Q9QZN9); test: cell-based; assay type: cell-based; settings: for +/− RCB2: agonist or inverse agonist at rCB2
T1 sequence (Q9QZN9 1-360): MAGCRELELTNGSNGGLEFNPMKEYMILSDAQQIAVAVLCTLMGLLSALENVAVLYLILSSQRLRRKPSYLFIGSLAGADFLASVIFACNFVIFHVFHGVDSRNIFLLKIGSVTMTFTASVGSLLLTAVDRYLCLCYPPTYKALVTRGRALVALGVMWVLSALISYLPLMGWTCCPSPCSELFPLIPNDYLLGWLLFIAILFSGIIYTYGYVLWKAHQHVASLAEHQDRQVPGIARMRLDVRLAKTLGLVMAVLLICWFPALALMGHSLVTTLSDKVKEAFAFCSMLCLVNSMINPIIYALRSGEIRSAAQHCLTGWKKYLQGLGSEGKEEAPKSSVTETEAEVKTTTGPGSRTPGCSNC
In short: (§1)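 Readout: LANCE TR-FRET cAMP, back-calculated from a concurrent standard curve and scaled between forskolin-only and forskolin + 1 μM CP55,940 wells. EC50 and intrinsic activity came from four-parameter fits.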

[1] = target: human CB1 receptor (hCB1) (Homo sapiens, UniProt P21554); test: cell-based; assay type: cell-based; settings: for +/− HCB1: agonist or inverse agonist at hCB1
human CB1 receptor (hCB1), sequence (P21554 whole entry): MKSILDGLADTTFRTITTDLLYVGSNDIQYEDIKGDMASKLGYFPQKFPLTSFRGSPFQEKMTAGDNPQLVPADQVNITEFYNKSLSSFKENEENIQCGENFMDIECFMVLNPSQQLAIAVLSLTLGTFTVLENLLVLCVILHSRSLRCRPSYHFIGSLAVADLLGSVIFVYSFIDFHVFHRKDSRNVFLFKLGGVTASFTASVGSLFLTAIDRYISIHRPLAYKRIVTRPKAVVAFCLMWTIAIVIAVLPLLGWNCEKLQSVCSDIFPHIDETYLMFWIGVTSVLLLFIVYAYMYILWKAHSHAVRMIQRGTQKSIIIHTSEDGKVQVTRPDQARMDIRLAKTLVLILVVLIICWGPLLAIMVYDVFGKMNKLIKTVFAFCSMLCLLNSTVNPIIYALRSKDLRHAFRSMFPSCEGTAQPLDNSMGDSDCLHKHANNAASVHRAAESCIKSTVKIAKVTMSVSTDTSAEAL
In short: as §1

rats = test: Spinal nerve ligation (SNL) model of neuropathic pain; assay type: in vivo; settings: rat, oral 3, 10 and 30 mg/kg, FIG. 4
Procedure: The SNL model (Kim and Chung 1992) was used to induce chronic neuropathic pain in rats. The rats were anesthetized with isoflurane, the left L5 transverse process was removed, and the L5 and L6 spinal nerves were tightly ligated with 6-0 silk suture. The wound was then closed with internal sutures and external staples. Following at least seven days post SNL, baseline, post-injury and post-treatment values for non-noxious mechanical sensitivity were evaluated using eight Semmes-Weinstein filaments (Stoelting, Wood Dale, Ill., USA) with varying stiffness (0.4, 0.7, 1.2, 2.0, 3.6, 5.5, 8.5, and 15 g) according to the up-down method (Chaplan et al. 1994). Animals were placed on a perforated metallic platform and allowed to acclimate to their surroundings for a minimum of thirty minutes before testing. The mean and standard error of the mean (SEM) were determined for the injured paw in each treatment group. Since this stimulus is normally not considered painful, significant injury-induced increases in responsiveness in this test are interpreted as a measure of mechanical allodynia. The dose which elicited 50% attenuation of mechanical hypersensitivity (ED50) was determined using linear regression analysis. Results obtained after oral administration of compound 317 at 3, 10 and 30 mg/kg and with compound 366 at 1, 3 and 10 mg/kg are shown in FIG. 4.

Male Sprague-Dawley rats = test: Complete Freund's Adjuvant (CFA) model of inflammatory pain, Randall-Selitto paw pressure; assay type: in vivo; settings: rat, intraperitoneal
Procedure: Male Sprague-Dawley rats (Hsd:Sprague-Dawley®™SD®™, Harlan, Indianapolis, Ind.) weighing 201±1 grams, were housed three per cage. Animals had free access to food and water and were maintained on a twelve hour light/dark schedule for the entire duration of the experiment. Approximately 12 hours prior to behavioral testing, animals were placed on wire mesh bottom cages with free access to water but no access to food. Test compounds were prepared in 50% PEG-400 (Sigma-Aldrich, cat. P3265). Indomethacin (Fluka, cat 57413) was suspended in 0.5% methylcellulose (Sigma-Aldrich, cat. 274429). Groups of eight animals were anesthetized with 2-3% isoflurane and local inflammation induced by 50 μl CFA (Sigma-Aldrich, cat F5881, Mycobacterium tuberculosis 1 mg/ml) injected subcutaneously into the plantar surface of the left paw.
Assessment of mechanical hyperalgesia: Baseline and post-treatment withdrawal thresholds to a noxious mechanical stimulus were measured using the Randall-Selitto paw pressure apparatus (Ugo Basile Analgesymeter, model 7200). […] Mechanical hyperalgesia was measured using the Randall-Selitto paw pressure device before CFA injection and after intraperitoneal (i.p.) compound administration over a twenty-four-hour period. The mean and standard error of the mean (SEM) were determined for the injured and normal paws for each treatment group.

[2] = groups >100 nM-10 μM and >10 μM, cAMP, CHO-K1 hCB1, read-out: EC50 HCB1

| SMILES | +/− RCB2 (rat CB2 receptor (rCB2)) | EC50 [1] [nM] | other results |
| --- | --- | --- | --- |
| CNC(=O)[C@@H](NC(=O)c1nc(-c2ccccc2)n2c1CN(C)CCC2)C(C)(C)C [Compound 317, (S)-N-(3,3-dimethyl-1-(methylamino)-1-oxobutan-2-yl)-8-methyl-3-phenyl-6,7,8,9-tetrahydro-5H-imidazo[1,5-a][1,4]diazepine-1-carboxamide] | + | > 10000 | effect in the neuropathic pain model (rats): dose response in the neuropathic pain model |
| CCS(=O)(=O)N1CCn2c(-c3ccccc3)nc(C(=O)N[C@H](C(=O)NC)C(C)(C)C)c2C1 [Compound 91, (S)-N-(3,3-dimethyl-1-(methylamino)-1-oxobutan-2-yl)-7-(ethylsulfonyl)-3-phenyl-5,6,7,8-tetrahydroimidazo[1,5-a]pyrazine-1-carboxamide] | − | > 10000 | side effects during the experiment (Male Sprague-Dawley rats): No side effects were observed |
| CNC(=O)[C@@H](NC(=O)c1nc(-c2ccc(Cl)cc2F)n2c1CN(C)CCC2)C(C)(C)C [Compound 366, (S)-3-(4-chloro-2-fluorophenyl)-N-(3,3-dimethyl-1-(methylamino)-1-oxobutan-2-yl)-8-methyl-6,7,8,9-tetrahydro-5H-imidazo[1,5-a][1,4]diazepine-1-carboxamide] | + |  | +/− HCB1 [1]: +; effect in the neuropathic pain model (rats): dose response in the neuropathic pain model |
| CC(=O)N1CCn2c(-c3ccccc3)nc(C(=O)N[C@H](C)C3CCCCC3)c2C1 [Compound 170, (R)-7-acetyl-N-(1-cyclohexylethyl)-3-phenyl-5,6,7,8-tetrahydro-imidazo[1,5-a]pyrazine-1-carboxamide] | − | > 10000 |  |
| CNC(=O)[C@@H](NC(=O)c1nc(-c2ccccc2)n2c1CN(C(=O)OC)CC2)C(C)(C)C [Compound 180, (S)-methyl 1-(3,3-dimethyl-1-(methylamino)-1-oxobutan-2-ylcarbamoyl)-3-phenyl-5,6-dihydroimidazo[1,5-a]pyrazine-7(8H)-carboxylate] | − | > 10000 |  |
| CNC(=O)[C@@H](NC(=O)c1nc(-c2ccc(-n3cccn3)cc2)n2c1CN(C)CCC2)C(C)(C)C [Compound 390, (S)-3-(4-(1H-pyrazol-1-yl)phenyl)-N-(3,3-dimethyl-1-(methylamino)-1-oxobutan-2-yl)-8-methyl-6,7,8,9-tetrahydro-5H-imidazo[1,5-a][1,4]diazepine-1-carboxamide] | − | > 10000 |  |
| CNC(=O)C(NC(=O)c1nc(-c2ccccc2)n2c1CN(C)CCC2)C(C)(C)F (centres unmarked) [Compound 605, N-(3-fluoro-3-methyl-1-(methylamino)-1-oxobutan-2-yl)-8-methyl-3-phenyl-6,7,8,9-tetrahydro-5H-imidazo[1,5-a][1,4]diazepine-1-carboxamide] | + | > 10000 |  |
| CNC(=O)[C@@H](NC(=O)c1nc(-c2ccccc2)n2c1CN(S(=O)(=O)c1ccc(F)cc1)CC2)C(C)(C)C [Compound 93, (S)-N-(3,3-dimethyl-1-(methylamino)-1-oxobutan-2-yl)-7-(4-fluorophenylsulfonyl)-3-phenyl-5,6,7,8-tetrahydroimidazo[1,5-a]pyrazine-1-carboxamide] | − | > 10000 |  |
| CNC(=O)[C@@H](NC(=O)c1nc(-c2ccc(Cl)cc2F)n2c1CN(C1CCN(C(C)=O)CC1)CCC2)C(C)(C)C [Compound 527, (S)-8-(1-acetylpiperidin-4-yl)-3-(4-chloro-2-fluorophenyl)-N-(3 3-dimethyl-1-(methylamino)-1-oxobutan-2-yl)-6,7,8,9-tetrahydro-5H-imidazo[1,5-a][1,4]diazepine-1-carboxamide] | − | > 10000 |  |
| CN1CCn2c(-c3ccccc3)nc(C(=O)CCCc3ccccc3)c2C1 [Compound 294, 1-(7-methyl-3-phenyl-5,6,7,8-tetrahydroimidazo[1,5-a]pyrazin-1-yl)-4-phenylbutan-1-one] | − |  | EC50 [1, 2]: > 10000 nM |
| CNC(=O)[C@@H](NC(=O)c1nc(-c2cccc(OC)c2F)n2c1CN(C)CCC2)C(C)(C)C [Compound 346, (S)-N-(3,3-dimethyl-1-(methylamino)-1-oxobutan-2-yl)-3-(2-fluoro-3-methoxyphenyl)-8-methyl-6,7,8,9-tetrahydro-5H-imidazo[1,5-a][1,4]diazepine-1-carboxamide] | − | > 10000 |  |
| CN1CCn2c(-c3ccc(Cl)cc3F)nc(C(=O)NC3CCN(C(=O)OC(C)(C)C)CC3)c2C1 [Compound 209, tert-butyl 4-(3-(4-chloro-2-fluorophenyl)-7-methyl-5,6,7,8-tetrahydroimidazo[1,5-a]pyrazine-1-carboxamido)piperidine-1-carboxylate] |  | > 10000 | EC50 (rat CB2 receptor (rCB2)): > 10000 nM |
| CN1CCCn2c(-c3ccc(Cl)c(F)c3)nc(C(=O)N[C@H](C(N)=O)C(C)(C)C)c2C1 [Compound 577, (S)-N-(1-amino-3,3-dimethyl-1-oxobutan-2-yl)-3-(4-chloro-3-fluorophenyl)-8-methyl-6,7,8,9-tetrahydro-5H-imidazo[1,5-a][1,4]diazepine-1-carboxamide] | + |  | +/− HCB1 [1]: + |
| CNC(=O)[C@@H](NC(=O)c1nc(C2=CCCCCC2)n2c1CN(C)CCC2)C(C)(C)C [Compound 457, (S,E)-3-cycloheptenyl-N-(3,3-dimethyl-1-(methylamino)-1-oxobutan-2-yl)-8-methyl-6,7,8,9-tetrahydro-5H-imidazo[1,5-a][1,4]diazepine-1-carboxamide] | − | > 10000 |  |
| CNC(=O)[C@@H](NC(=O)c1nc(C2CCCCC2)n2c1CN(C)CC2)C(C)(C)C [Compound 305, (S)-3-cyclohexyl-N-(3,3-dimethyl-1-(methylamino)-1-oxobutan-2-yl)-7-methyl-5,6,7,8-tetrahydroimidazo[1,5-a]pyrazine-1-carboxamide] | + | > 10000 |  |
| CNC(=O)c1ccc(NC(=O)c2nc(-c3ccc(Cl)cc3F)n3c2CN(C)CC3)cc1 [Compound 218] |  |  | EC50 (rat CB2 receptor (rCB2); groups >100 nM-10 μM and >10 μM, cAMP, CHO-K1 rCB2, read-out: EC50 RCB2): > 10000 nM; EC50 [1, 2]: > 10000 nM |
| O=C(c1nc(-c2ccccc2)n2c1CN(S(=O)(=O)c1ccc(F)cc1)CC2)N1CCOCC1 [Compound 105, (7-(4-fluorophenylsulfonyl)-3-phenyl-5,6,7,8-tetrahydroimidazo[1,5-a]pyrazine-1-yl)(morpholino)methanone] | − |  | EC50 [1, 2]: > 10000 nM |
| CNC(=O)[C@@H](NC(=O)c1nc(-c2ccccc2)n2c1CN(Cc1ccccc1)CC2)C(C)(C)C [Compound 61, (S)-7-benzyl-N-(3,3-dimethyl-1-(methylamino)-1-oxobutan-2-yl)-3-phenyl-5,6,7,8-tetrahydroimidazo[1,5-a]pyrazine-1-carboxamide] |  | > 10000 | EC50 (rat CB2 receptor (rCB2)): > 10000 nM |
| CN1CCCn2c(-c3cc(F)ccc3F)nc(C(=O)N[C@@H](CC(C)(C)C)C(N)=O)c2C1 [Compound 583, (S)-N-(1-amino-4,4-dimethyl-1-oxopentan-2-yl)-3-(2,5-difluorophenyl)-8-methyl-6,7,8,9-tetrahydro-5H-imidazo[1,5-a][1,4]diazepine-1-carboxamide] | + |  | +/− HCB1 [1]: + |
